For 19 compounds, MIC and IC50 results are on record in ChEMBL document CHEMBL5331054, “Antibacterial quaternary ammonium agents: Chemical diversity and biological mechanism” (Eur J Med Chem, 2022).

The term IC50 denotes the concentration that inhibits the measured activity by half.

Assay [1] concerns Staphylococcus aureus. Put plainly: Antibacterial activity against methicillin-resistant Staphylococcus aureus assessed as bacterial growth inhibition. Format: functional.
Assay [2] has as its system Pseudomonas aeruginosa. Put plainly: Antibacterial activity against Pseudomonas aeruginosa assessed as inhibition of bacterial cell growth. Format: functional.
In assay [3] the test system is Enterococcus faecalis. Put plainly: Antibacterial activity against Enterococcus faecalis assessed as reduction in bacterial cell growth. It counts as functional.
Assay [4] has as its system Escherichia coli. Put plainly: Antibacterial activity against Escherichia coli assessed as reduction bacterial cell growth. Format: functional.
For assay [5], the system named is Staphylococcus aureus. Put plainly: Antimicrobial activity against Staphylococcus aureus assessed as reduction in bacterial growth. It counts as functional.
For assay [6], the system named is Pseudomonas aeruginosa. Put plainly: Antibacterial activity against Pseudomonas aeruginosa assessed as bacterial growth inhibition incubated for 72 hrs by microdilution method. Format: functional. A general note: Broth dilution looks for growth in wells or tubes with falling amounts of substance.
Assay [7] relates to Staphylococcus aureus. Put plainly: Antibacterial activity against Staphylococcus aureus assessed as bacterial growth inhibition incubated for 72 hrs by microdilution assay. Format: functional, organism-based.
Assay [8] deals with Escherichia coli. Put plainly: Antibacterial activity against Escherichia coli assessed as bacterial growth inhibition incubated for 72 hrs by microdilution method. It counts as functional.
In assay [9] the test system is Stenotrophomonas maltophilia. Put plainly: Antibacterial activity against Stenotrophomonas maltophilia assessed as inhibition of bacterial growth. Format: functional.
Assay [10] deals with Bacillus cereus. Put plainly: Antibacterial activity against Bacillus cereus assessed as reduction in microbial growth after 18 hrs by MTT based broth dilution method. Format: functional.
Assay [11] has as its system Vibrio parahaemolyticus. Put plainly: Antibacterial activity against Vibrio parahaemolyticus ATCC 17802 assessed as reduction in bacterial growth incubated for 24 hrs by micro-dilution method. It counts as functional.
The subject of assay [12] is Staphylococcus aureus. Put plainly: Antibacterial activity against Staphylococcus aureus ATCC 4163 assessed as reduction in bacterial growth incubated for 24 hrs by micro-dilution method. It counts as functional.
For assay [13], the system named is Escherichia coli. Put plainly: Antibacterial activity against Escherichia coli ATCC 25922 assessed as reduction in bacterial growth incubated for 24 hrs by micro-dilution method. Format: functional.
Assay [14] concerns Pseudomonas aeruginosa. Put plainly: Antibacterial activity against Pseudomonas aeruginosa NCTC 6749 assessed as reduction in bacterial growth incubated for 24 hrs by micro-dilution method. Format: functional.
Assay [15] has as its system Klebsiella pneumoniae. Put plainly: Antibacterial activity against Klebsiella pneumoniae assessed as reduction in bacterial growth. It counts as functional.
The subject of assay [16] is Acinetobacter baumannii. Put plainly: Antibacterial activity against Acinetobacter baumannii assessed as inhibition of bacterial cell growth. It counts as functional.
The subject of assay [17] is Pseudomonas aeruginosa. Put plainly: Antibacterial activity against Pseudomonas aeruginosa assessed as reduction in bacterial cell growth. It counts as functional.
Assay [18] relates to Mycobacterium tuberculosis. Put plainly: Antibacterial activity against Mycobacterium tuberculosis Erdman assessed as bacterial growth inhibition. Format: functional.
Assay [19] has as its system Mycobacterium tuberculosis. Put plainly: Antimycobacterial activity against Mycobacterium tuberculosis assessed as reduction in mycobacterial growth. Format: functional.
Assay [20] has as its system Pseudomonas aeruginosa. Put plainly: Antibacterial activity against Pseudomonas aeruginosa ATCC 9027 assessed as reduction in bacterial growth incubated for 24 hrs by micro-dilution method. It counts as functional.
Assay [21] relates to Staphylococcus aureus. Put plainly: Antibacterial activity against Staphylococcus aureus ATCC 25923 assessed as reduction in bacterial growth incubated for 24 hrs by micro-dilution method. It counts as functional.
Assay [22] deals with Staphylococcus aureus. Put plainly: Antibacterial activity against methicillin- resistant Staphylococcus aureus assessed as bacterial growth inhibition incubated for 24 hrs. Format: functional.
For assay [23], the system named is Staphylococcus aureus. Put plainly: Antibacterial activity against Staphylococcus aureus assessed as bacterial growth inhibition measured after 24 hrs by micro-broth dilution method. It counts as functional.
Assay [24] deals with Enterococcus faecalis. Put plainly: Antibiofilm activity against Enterococcus faecalis assessed as reduction in bacterial growth by crystal violet based staining assay. Format: functional.
The test system of assay [25] is Pseudomonas aeruginosa. Put plainly: Antibiofilm activity against Pseudomonas aeruginosa assessed as reduction in bacterial growth by crystal violet based staining assay. Format: functional.
In assay [26] the test system is Staphylococcus aureus. Put plainly: Antibiofilm activity against Staphylococcus aureus assessed as reduction in bacterial growth by crystal violet based staining assay. Format: functional.
Assay [27] deals with Escherichia coli. Put plainly: Antibiofilm activity against Escherichia coli assessed as reduction in bacterial growth by crystal violet based staining assay. Format: functional.
The subject of assay [28] is Enterococcus faecalis. Put plainly: Antibacterial activity against Enterococcus faecalis assessed as bacterial growth inhibition incubated for 72 hrs by microdilution method. It counts as functional.

Where only a bound is given, the exact number is not on record here.

For the compound `CCCCCCCCCC[n+]1cccc(CN(Cc2ccc[n+](CCCCCCCCCC)c2)Cc2ccc[n+](CCCCCCCCCC)c2)c1`, the MIC in assay [1] worked out at 0.5 µM; in assay [2], 2 µM; in assay [3], 1 µM; in assay [4] it was 1 µM; in assay [5] it was 0.5 µM.
In the case of `CCCCCCCCCCCCOC(=O)C[N+](C)(C)CCC[N+](C)(C)CC(=O)OCCCCCCCCCCCC.[Br-].[Br-]`, the values for the MIC in assay [6] and in assay [8] were 300 µM and 20 µM, respectively. The IC50 in assay [7] was 20 µM.
For `CCCCCCCCCCC[n+]1cccc(Oc2ccc(Oc3ccc[n+](CCCCCCCCCCC)c3)cc2)c1.[Br-].[Br-]`, the MIC in [1] is less than 0.25 µg/mL.
As to `CCCCCCCC[N+](C)(C)CCOc1ccc(OCC[N+](C)(C)CCCCCCCC)cc1.[Br-].[Br-]`, the results for the MIC in [3], in [9] and in assay [5] were 4 µg/mL, 1 µg/mL and 0.5 µg/mL, respectively.
Regarding `CCCCCCCC[N+](C)(C)CC(=O)Nc1ccc(C(=O)/C=C/c2ccccc2F)cc1`, the MIC in assay [10] stood at 2 µM.
Take `CCCCCCCCCCCC[N+](C)(C)CCNC(=O)C12CC3CC(C1)CC(C(=O)NCC[N+](C)(C)CCCCCCCCCCCC)(C3)C2`: the MIC in assay [11] is 0.1 µM; in assay [12], 2.3 µM; in [13] it was 9.4 µM; in [14], 2.3 µM.
With `CCCCCCCCCCC[n+]1cccc(Oc2cccc(Oc3ccc[n+](CCCCCCCCCCC)c3)c2)c1.[Br-].[Br-]`, the MIC in [1], in [2], in assay [4], in assay [15] and in [16] was less than 0.25 µg/mL throughout.
Consider `CC1(C)[C@@H]2CC[C@H](CC[N+](C)(C)CC[C@H]3CC[C@@H]4C[C@H]3C4(C)C)[C@H]1C2.[I-]`, for which the MIC in assay [13] stood at 5 µg/mL.
As for `CCCCCCCCCCCCOC(=O)C[N+](C)(C)CCC[N+](C)(C)CC(=O)OCCCCCCCCCCCC.[Cl-].[Cl-]`, the MIC in assay [6] is 40 µM; in assay [8], 200 µM. Further, in [7], the IC50 was found to be 120 µM.
On to `CCCCCCCCC[n+]1ccc(Oc2ccc(-c3ccc(Oc4cc[n+](CCCCCCCCC)cc4)cc3)cc2)cc1.[Br-].[Br-]`, for which the MIC in [17], in assay [1], in assay [4], in assay [15] and in assay [16] was less than 0.25 µg/mL in each case.
Consider `CCCCCCc1ccc[n+](CCOC2C3CC4CC(C3)CC2C4)c1.CS(=O)(=O)[O-]` (centres undefined), for which the MIC came out at 1.6 µg/mL in assay [18] and 3.1 µg/mL in [19].
Take `CC1(C)[C@@H]2CC[C@H](CC[N+](C)(C)CC[C@H]3CC[C@@H]4C[C@H]3C4(C)C)[C@H]1C2.[Cl-]`: the MIC in assay [20], in [21] and in [13] was 0.625 µg/mL in each case.
Consider `CCCCCCCCCCCC[N+](C)(C)CCCN(C)C`, for which the MIC was found to be 8 µM in assay [1] and 4 µM in assay [22].
As for `CCCCCC[N+](C)(C)CCOc1ccc(OCC[N+](C)(C)CCCCCC)cc1.[Br-].[Br-]`, the MIC came to 128 µg/mL in assay [3], 64 µg/mL in [9] and 32 µg/mL in assay [5].
For `CCCCCCCCS(=O)(=O)Nc1ccc(-c2ccc(-c3ccccc3)cc2)cc1C(=O)C(=O)NCCC[N+](C)(C)C`, the MIC in [23] turned out to be 4 µM.
On to `CCCCCCCCCC[N+](C)(C)CCOc1ccc(OCC[N+](C)(C)CCCCCCCCCC)cc1.[Br-].[Br-]`, for which the MIC was found to be 0.25 µg/mL in assay [3], 0.5 µg/mL in [9] and 0.5 µg/mL in assay [5].
With `CCCCCCCCCCCC[N+](C)(C)c1ccc(C(c2ccc(N(C)C)cc2)c2ccc(N(C)C)cc2)cc1`, the MIC in assay [5] came out at 0.25 µM.
Turning to `CCCCCCCCCCCC[N+](C)(C)CC[N+](C)(C)CC[N+](C)(C)CCCCCCCCCCCC`, the MIC in assay [24] is less than 0.25 µM; in assay [25] it was 1 µM; in assay [26], less than 0.25 µM; in assay [27] it was 0.5 µM.
Turning to `CCCCCCCCCCCC[N+](C)(C)CCCCCCCCCCCC`, the MIC turned out to be 32 µM in assay [6] (Pseudomonas aeruginosa, 72 h, read-out: MIC); 1 µM in assay [7] (Staphylococcus aureus, time 72 hrs); 1 µM in assay [28]; 8 µM in assay [8] (Escherichia coli, 72 h, read-out: MIC).
